From patent publication EP0837085A1, “POLYCARBONATE-BASE POLYMER, PRODUCTION PROCESS, RESIN COATING FLUID PREPARED THEREFROM, AND ELECTROPHOTOGRAPHIC PHOTORECEPTOR PREPARED THEREFROM” (IDEMITSU KOSAN COMPANY LIMITED, priority 1994, dated 1996)

Tests used:
[1] = pKa of the starting alcohol, in water at 25°C
Method: (§1) An ordinary acid, which is represented by HA, in water is in an equilibrium state as shown below. HA + H2 O ⇄ H3 O^+ (+ A)^- [formula] Equilibrium constant Keq is calculated as follows. Keq =([H3 O^+ (] [A)^- ])/([HA] [H2 O]) [formula] wherein [ ] represents the concentration of each chemical species.
(§2) In ordinary diluted solutions, the concentration of water [H2O] hardly changes and is constantly 55.5M, and the equilibrium constant Keq can be converted into another equation, to show the following acidity constant Ka. Ka =(([A)^- ] [H3 O^+ ])/([HA]) [formula]

Method for physchem: as §1, §2

`OCC(F)(F)C(F)(F)C(F)(F)CO` [2,2,3,3,4,4-hexafluoro-1,5-pentanediol] showed a pKa (physchem) of 11.

In the case of `OCC(F)(F)F` [2,2,2-trifluoroethanol], the pKa (physchem; water) is reported as 11.

In the case of `OCC(F)(F)C(F)(F)C(F)(F)C(F)(F)CO` [1H,1H,6H,6H-perfluoro-1,6-hexanediol], the pKa [1] is reported as 11.

`OC(C(F)(F)F)C(F)(F)F` gave a pKa [1] of 5.

Work on `OCCCCCO` [1,5-pentanediol, reference compound] yielded a pKa (physchem; water) of 17.
